Values quoted from earlier work as cited in US20120189694A1, “CO-PRECIPITATE COMPRISING A PHOSPHODIESTERASE-5 INHIBITOR (PDE-5-INHIBITOR) AND A […] COMPATIBLE CARRIER, PRODUCTION AND USE THEREOF” (ratiopharm GmbH, priority 2009, published 2012).

Legend:
[1] = according to WO 01/08687
[2] = in vivo

CN1CC(=O)N2[C@H](c3ccc4c(c3)OCO4)c3[nH]c4ccccc4c3C[C@@H]2C1=O [tadalafil, (6R,12aR)-6-(1,3-benzodioxol-5-yl)-2-methyl-1,2,3,4,6,7,12,12a-octahydropyrazino[2′,1′:6,1]pyrido[3,4-b]indole-1,4-dione]
solubility in water [1]: about 2 μg/ml | time the action lasts [2]: up to 36 hours
